The target of assay [1] is T1, Mannose-6-phosphate isomerase (Homo sapiens, UniProt P34949).
T1 sequence (P34949 whole entry): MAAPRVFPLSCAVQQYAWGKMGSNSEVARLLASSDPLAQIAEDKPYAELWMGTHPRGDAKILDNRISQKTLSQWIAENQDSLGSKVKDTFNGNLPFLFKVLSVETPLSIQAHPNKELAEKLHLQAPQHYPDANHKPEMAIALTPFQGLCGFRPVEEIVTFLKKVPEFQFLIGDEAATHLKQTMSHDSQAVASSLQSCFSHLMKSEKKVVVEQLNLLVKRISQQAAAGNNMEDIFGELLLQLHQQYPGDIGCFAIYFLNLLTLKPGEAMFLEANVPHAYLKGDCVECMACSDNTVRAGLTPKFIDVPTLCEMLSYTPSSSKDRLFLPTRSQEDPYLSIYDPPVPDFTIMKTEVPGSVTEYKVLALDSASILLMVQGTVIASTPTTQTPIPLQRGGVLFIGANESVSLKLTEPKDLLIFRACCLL
Briefly: MPI inhibition at elevated mannose 6-phosphate – biochemical, fluorescence intensity, high mannose 6-phosphate, primary screen (AID 1220).

Another assay deals with H4. As to the kind of experiment: Luminescence Cell-Based Dose Response HTS to Identify Activators of 5'UTR Stem-Loop Driven Prion Protein mRNA Translation in H4 Neuroglioblastoma Cells. [Related pubchem assays: 1829 (Project Summary), 1814 (Primary HTS)]. In kind it is functional. To be noted: Homo sapiens.
Assay [2] has as its target E3 ubiquitin-protein ligase Mdm2 (Homo sapiens, UniProt Q00987). Briefly: MDM2-luc reporter signal enhancers, multi-concentration potency testing, MDM2 ubiquitin-protein ligase inhibitor program, whole-cell format, luminescence detection, 384-well microplate (AID 1394).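 Also: MDM2 E3 inhibitors raise luminescence so EC50 is for signal enhancement.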 It is filed as functional.
The nature of assay [3]: Luminescence Cell-Based Dose Response HTS to Identify Activators of Luciferase Translation or Activity in H4 […] Cells. [Related pubchem assays: 1829 (Project Summary), 1814 (Primary HTS)]. It is filed as functional.
In another assay the target is Prothrombin (Homo sapiens, UniProt P00734). As to the kind of experiment: Thrombin 1536 HTS Dose Response Confirmation. [Related pubchem assays: 1046 (Thrombin 1536 HTS; hits were confirmed in this assay)]. In kind it is functional.
Assay [4] addresses Heat shock protein HSP 90-alpha (Homo sapiens, UniProt P07900). As to the kind of experiment: Luminescence-based dose response biochemical high throughput screening assay for inhibitors of the Heat Shock Protein 90 (HSP90). [Related pubchem assays: 1831 (Summary AID.), 1846 (Confirmation screen.), 1789 (Primary screen.)].
Assay [5] in a line: toxicity to human hepatoma HepG2 cells – cell-based, cherry-picked samples, cytotoxicity control, dose response (AID 1159577). It is filed as functional.
Assay [6] in a line: P. falciparum Dd2 growth inhibitors, dose response, SYBR Green, cherry-picked samples (AID 1159567). It is filed as functional, cell-based.
Assay [7] is described as follows: Dd2 malaria parasite growth inhibition potency – SYBR Green, dry powder samples, dose response (AID 1159566).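 Also: potency for growth inhibition with lower SYBR green DNA signal.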 It is filed as functional, cell-based.
Assay [8] in a line: toxicity to human HepG2 hepatoma cells – cell-based, plate reader, dry powder samples, cytotoxicity control, dose response (AID 1159569).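 Also: inhibitor potency with signal falling toward the positive control level.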 It is filed as functional.
The nature of assay [9]: growth inhibition of PfATP4-mutant resistant parasites – NITD609-resistant line, SYBR Green, dry powder, dose response (AID 1159571).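 Also: parasites synchronized at ring stage by sorbitol before testing.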 It is filed as functional, cell-based.
The nature of assay [10]: growth inhibition of yeast DHODH-expressing 3D7 parasites – SYBR Green, dry powder samples, dose response (AID 1159570).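 Also: parasite growth measured after 72 hours of compound exposure.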 It is filed as functional, cell-based.

Activity calls are given as the source filed them.

E3 ubiquitin-protein ligase Mdm2, sequence (Q00987 whole entry): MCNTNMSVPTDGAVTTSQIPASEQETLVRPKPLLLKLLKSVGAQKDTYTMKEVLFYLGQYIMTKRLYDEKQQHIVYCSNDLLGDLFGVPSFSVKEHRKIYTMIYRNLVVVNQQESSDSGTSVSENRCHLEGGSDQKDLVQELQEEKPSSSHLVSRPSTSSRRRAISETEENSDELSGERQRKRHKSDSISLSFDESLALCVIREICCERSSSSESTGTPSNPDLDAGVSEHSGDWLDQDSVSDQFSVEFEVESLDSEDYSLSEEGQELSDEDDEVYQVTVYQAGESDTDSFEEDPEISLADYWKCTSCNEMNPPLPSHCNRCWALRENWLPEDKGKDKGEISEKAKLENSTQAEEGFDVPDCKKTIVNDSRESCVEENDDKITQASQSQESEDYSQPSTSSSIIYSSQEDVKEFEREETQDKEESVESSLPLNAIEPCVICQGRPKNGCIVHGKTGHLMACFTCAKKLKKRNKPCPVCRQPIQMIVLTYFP

A word on the IC50: it is the concentration needed to halve the response being measured. Turning to `Cc1cccc(N2C(=O)/C(=C/N3CCN(C(=O)c4ccco4)CC3)C(=O)NC2=S)c1`, the IC50 in [1] was > 50 µM (not active).

As usually defined, the EC50 is the concentration giving half of the maximal effect. With `Cc1cccc(Nc2nnc(SCC3CCCCO3)s2)c1` (stereo not given), the EC50 with H4 is 21.8 µM (active); in assay [2], 11.2 µM (not active); in [3] it was 27.2 µM (active).

In the case of `Cc1nnc(SCc2nnc(-c3ccccc3Br)o2)n1-c1ccccc1`, on Prothrombin, the IC50 is > 50 µM (not active).

Take `COc1ccc(N(/N=C2\Sc3ccccc3C2=O)C(C)=O)cc1`: in [4], the IC50 is 1.96 µM (active).

As a reminder, the AC50 is the concentration at which the activity in the assay is half-maximal. For the molecule `CO[C@@H]1CN(C)C(=O)c2cc(NC(=O)c3nc4ccccc4s3)ccc2OC[C@H](C)N(Cc2cccnc2)C[C@@H]1C`, the AC50 was 33.4 µM (active) in assay [5] and 5.35 µM (active) in assay [6].

Consider `COc1ccc(C#Cc2ccc([C@H]3[C@@H](CO)N4CCCCN(C(=O)Nc5ccccc5F)C[C@H]34)cc2)cc1`, for which the AC50 is 7 µM (active) in [5] and 1.02 µM (active) in assay [6].

Turning to `O=C(C1CCCC1)N1CC[C@@H]2[C@H]1c1cc(-c3cccc(F)c3)ccc1N[C@@H]2CO`, the AC50 in assay [7] is 0.641 µM (active); in assay [8] it was 19.9 µM (active); in assay [9] it was 0.577 µM (active); in [10] it was 1.03 µM (active); in assay [6], 0.996 µM (active).

On to `COc1ccccc1C#Cc1ccc2c(c1)[C@H]1NCC[C@H]1[C@@H](CO)N2`, for which the AC50 in assay [7] is 2.02 µM (active); in assay [8] it was 38.1 µM (active); in [9], 3.13 µM (active); in assay [10], 3.54 µM (active); in [6], 2.45 µM (active).

For the origin of these results see ChEMBL document CHEMBL1201862, “PubChem BioAssay data set” (2004).
